In patent publication US20250144067A1, “PERSONALIZED STARVATION THERAPY FOR CANCER” (Faeth Therapeutics, Inc., priority 2021, published 2025):
Counter-ions that a name gives are not always drawn. Like-named read-outs stand apart in the source and are kept apart here.

Legend:
[1] = system: NCI-H292 lung cancer cells; test: FDA drug screening, complete media vs cholesterol-free media without statin (TABLE 1); assay type: cell-based, human
[2] = system: NCI-H292 lung cancer cells; test: FDA drug screening, complete media vs cholesterol-free media with simvastatin (TABLE 2); assay type: cell-based, human
[3] = NCI-H292 cells, cholesterol-free media without statin, FDA drug library screen
[4] = NCI-H292 cells, complete media, FDA drug library screen
[5] = NCI-H292 cells, FDA drug library screen, cholesterol-free media with simvastatin 0.04 μM
[6] = NCI-H292 cells, FDA drug library screen, complete media
[7] = complete media vs cholesterol-free media + simvastatin (0.04 μM), >0 enhanced anti-cancer activity, about 0 neutral, <0 antagonist
[8] = Complete minus Cholesterol-free, […]
[9] = NCI-H292 cells in cholesterol-free media without statin
[10] = NCI-H292 cells in complete media
[11] = complete media vs cholesterol-free media + simvastatin (0.04 μM), […]
[12] = Complete minus Cholesterol-free, >0 enhanced anti-cancer activity, about 0 neutral, <0 antagonist
[13] = NCI-H292 cells, cholesterol-free media without statin
[14] = NCI-H292 cells, cholesterol-free media with simvastatin 0.04 μM, cell growth value in FDA drug screen
[15] = NCI-H292 cells, complete media, cell growth value in FDA drug screen
[16] = complete media minus cholesterol-free media + simvastatin, >0 enhanced anti-cancer activity, about 0 neutral, <0 antagonist
[17] = complete vs cholesterol-free media, greater than 0 enhanced anti-cancer activity, about 0 neutral, below 0 antagonists
[18] = NCI-H292 cells, drug in cholesterol-free media with simvastatin 0.04 μM
[19] = NCI-H292 cells, drug in complete media
[20] = Complete minus Cholesterol-free, greater than 0 enhanced anti-cancer activity, about 0 neutral, below 0 antagonist
[21] = NCI-H292 cells, FDA drug library screen, cholesterol-free media without statin
[22] = Complete minus Cholesterol-free, greater than 0 enhanced anti-cancer activity, about 0 neutral, below 0 antagonists
[23] = NCI-H292 cells, FDA library drug in cholesterol-free media with simvastatin 0.04 μM
[24] = NCI-H292 cells, FDA library drug in complete media
[25] = NCI-H292 cells, cholesterol-free media with simvastatin 0.04 μM, FDA drug library screen (TABLE 2)
[26] = NCI-H292 cells, complete media, FDA drug library screen (TABLE 2)
[27] = complete media minus cholesterol-free media + simvastatin (0.04 μM), >0 enhanced anti-cancer activity, about 0 neutral, <0 antagonist

O=C(O)CSc1nnc(Br)n1-c1ccc(C2CC2)c2ccccc12 [Lesinurad (sodium)]
Cholesterol-free [1, 3]: 0.8857 | Complete [1, 4]: 1.263 | Difference ([1]; complete vs cholesterol-free media, >0 enhanced anti-cancer activity, about 0 neutral, <0 antagonist): 0.38 | Cholesterol-free media + simvastatin (0.04 μM) [2, 5]: 0.8519 | Complete Media [2, 6]: 0.7365 | Difference [2, 7]: −0.12

CNC(=O)CN(CCN(CCN(CC(=O)[O-])CC(=O)NC)CC(=O)[O-])CC(=O)[O-].O.[Gd+3] [Gadodiamide (hydrate)]
Difference [1, 8]: −0.65 | Cholesterol-free [1, 9]: 1.387 | Complete [1, 10]: 0.7342 | Cholesterol-free media + simvastatin (0.04 μM) [2, 5]: 1.113 | Complete Media [2, 6]: 0.9905 | Difference [2, 11]: −0.12

O=P(O)(O)C(O)(Cc1cccnc1)P(=O)(O)O [Risedronate (sodium)]
Difference [1, 12]: −0.30 | Cholesterol-free [1, 13]: 1.022 | Complete ([1]; NCI-H292 cells, complete media): 0.7264 | Cholesterol-free media + simvastatin (0.04 μM) [2, 14]: 0.8847 | Complete Media [2, 15]: 0.9961 | Difference [2, 16]: 0.11

O=C1C(CC[S+]([O-])c2ccccc2)C(=O)N(c2ccccc2)N1c1ccccc1 (stereo not drawn) [Sulfinpyrazone]
Cholesterol-free [1, 13]: 1.3 | Complete ([1]; NCI-H292 cells, complete media): 0.9417 | Difference [1, 17]: −0.36 | Cholesterol-free media + simvastatin (0.04 μM) [2, 18]: 1.076 | Complete Media [2, 19]: 0.9093 | Difference [2, 7]: −0.17

Cl.N[C@@H](CS)C(=O)O [L-Cysteine (hydrochloride)]
Difference [1, 8]: −0.04 | Cholesterol-free [1, 3]: 1.166 | Complete [1, 4]: 1.124 | Cholesterol-free media + simvastatin (0.04 μM) [2, 18]: 1.122 | Complete Media [2, 19]: 0.9187 | Difference [2, 11]: −0.20

C[N+](C)(C)C[C@H](O)CC(=O)[O-] [L-Carnitine]
Difference [1, 20]: −0.11 | Cholesterol-free [1, 21]: 1.053 | Complete [1, 6]: 0.9402 | Cholesterol-free media + simvastatin (0.04 μM) [2, 5]: 0.9127 | Complete Media [2, 6]: 0.8221 | Difference [2, 7]: −0.09

Nc1ncnc2[nH]cnc12 [Adenine]
Difference [1, 22]: −0.97 | Cholesterol-free [1, 9]: 1.858 | Complete [1, 10]: 0.8914 | Cholesterol-free media + simvastatin (0.04 μM) [2, 5]: 1.106 | Complete Media [2, 6]: 1.256 | Difference [2, 16]: 0.15

NC(=O)c1cccc2cn(-c3ccc([C@@H]4CCCNC4)cc3)nc12 [Niraparib (hydrochloride)]
Difference [1, 22]: −0.48 | Cholesterol-free [1, 9]: 1.435 | Complete [1, 10]: 0.9534 | Cholesterol-free media + simvastatin (0.04 μM) [2, 14]: 0.7422 | Complete Media [2, 15]: 0.838 | Difference [2, 16]: 0.10

CCCc1nc2c(C)cc(-c3nc4ccccc4n3C)cc2n1Cc1ccc(-c2ccccc2C(=O)O)cc1 [Telmisartan]
Difference [1, 12]: −0.06 | Cholesterol-free [1, 3]: 1.319 | Complete [1, 4]: 1.255 | Cholesterol-free media + simvastatin (0.04 μM) [2, 14]: 0.8657 | Complete Media [2, 15]: 0.906 | Difference [2, 16]: 0.04

CC(/C=C/C=C(\C)C(=O)O[C@@H]1O[C@H](CO[C@@H]2O[C@H](CO)[C@@H](O)[C@H](O)[C@H]2O)[C@@H](O)[C@H](O)[C@H]1O)=C\C=C\C=C(C)\C=C\C=C(/C)C(=O)O[C@@H]1O[C@H](CO[C@@H]2O[C@H](CO)[C@@H](O)[C@H](O)[C@H]2O)[C@@H](O)[C@H](O)[C@H]1O [Crocin]
Difference [1, 20]: −0.11 | Cholesterol-free [1, 21]: 1.099 | Complete [1, 6]: 0.9914 | Cholesterol-free media + simvastatin (0.04 μM) [2, 18]: 1.135 | Complete Media [2, 19]: 0.9252 | Difference [2, 7]: −0.21

C[C@H]1CN(C[C@H](Cc2ccccc2)C(=O)NCC(=O)O)CC[C@@]1(C)c1cccc(O)c1 [Alvimopan (dihydrate)]
Difference [1, 22]: −1.02 | Cholesterol-free [1, 9]: 1.958 | Complete [1, 10]: 0.9383 | Cholesterol-free media + simvastatin (0.04 μM) [2, 23]: 1.255 | Complete Media [2, 24]: 0.9864 | Difference [2, 7]: −0.27

Cc1cc(C2=NOC(c3cc(Cl)cc(Cl)c3)(C(F)(F)F)C2)ccc1C(=O)NCC(=O)NCC(F)(F)F (stereo not drawn) [Fluralaner]
Cholesterol-free [1, 3]: 0.6434 | Complete [1, 4]: 1.375 | Difference ([1]; complete vs cholesterol-free media, […]): 0.73 | Cholesterol-free media + simvastatin (0.04 μM) [2, 18]: 1.609 | Complete Media [2, 19]: 1.41 | Difference [2, 11]: −0.20

O=C1NC(=O)C(c2ccccc2)(c2ccccc2)N1 [Phenytoin (sodium)]
Difference [1, 12]: −0.27 | Cholesterol-free [1, 13]: 1.197 | Complete ([1]; NCI-H292 cells, complete media): 0.9283 | Cholesterol-free media + simvastatin (0.04 μM) [2, 25]: 0.8893 | Complete Media [2, 26]: 0.8884 | Difference [2, 27]: 0.00

Cn1cc(C(=O)[C@@H]2CCc3nc[nH]c3C2)c2ccccc21 [Ramosetron (Hydrochloride)]
Difference [1, 12]: 0.03 | Cholesterol-free [1, 3]: 0.9223 | Complete [1, 4]: 0.9545 | Cholesterol-free media + simvastatin (0.04 μM) [2, 5]: 1.25 | Complete Media [2, 6]: 1.513 | Difference [2, 16]: 0.26

Cc1cc2nc3c(=O)[nH]c(=O)nc-3n(C[C@H](O)[C@H](O)[C@H](O)COP(=O)(O)OP(=O)(O)OC[C@H]3O[C@@H](n4cnc5c(N)ncnc54)[C@H](O)[C@@H]3O)c2cc1C
Difference [1, 20]: −0.12 | Cholesterol-free [1, 21]: 0.9242 | Complete [1, 6]: 0.8033 | Cholesterol-free media + simvastatin (0.04 μM) [2, 18]: 1.111 | Complete Media [2, 19]: 0.8891 | Difference [2, 7]: −0.22

Cc1cc(C(C)(C)C)cc(C)c1CC1=NCCN1 [Xylometazoline (hydrochloride)]
Difference [1, 8]: −0.59 | Cholesterol-free [1, 9]: 1.406 | Complete [1, 10]: 0.8153 | Cholesterol-free media + simvastatin (0.04 μM) [2, 23]: 1.159 | Complete Media [2, 24]: 0.7803 | Difference [2, 11]: −0.38

CC[C@@H]1CN(C(=O)NCC(F)(F)F)C[C@@H]1c1cnc2cnc3[nH]ccc3n12 [Upadacitinib]
Difference [1, 22]: −0.51 | Cholesterol-free [1, 9]: 1.213 | Complete [1, 10]: 0.7003 | Cholesterol-free media + simvastatin (0.04 μM) [2, 18]: 0.7425 | Complete Media [2, 19]: 0.5732 | Difference [2, 7]: −0.17

CC(=O)c1ccc(S(=O)(=O)NC(=O)NC2CCCCC2)cc1 [Acetohexamide]
Difference [1, 20]: −0.13 | Cholesterol-free [1, 21]: 1.163 | Complete [1, 6]: 1.03 | Cholesterol-free media + simvastatin (0.04 μM) [2, 5]: 1.214 | Complete Media [2, 6]: 1.116 | Difference [2, 7]: −0.10

Nc1[nH]c(=O)ncc1F [Flucytosine]
Cholesterol-free [1, 13]: 1.247 | Complete ([1]; NCI-H292 cells, complete media): 0.8456 | Difference [1, 17]: −0.40 | Cholesterol-free media + simvastatin (0.04 μM) [2, 23]: 1.754 | Complete Media [2, 24]: 1.475 | Difference [2, 7]: −0.28

Gentamicin (sulfate)
Difference [1, 12]: 0.07 | Cholesterol-free [1, 3]: 0.9104 | Complete [1, 4]: 0.9799 | Cholesterol-free media + simvastatin (0.04 μM) [2, 14]: 0.8679 | Complete Media [2, 15]: 0.9575 | Difference [2, 16]: 0.09

CC(C)OC(=O)[C@H](C)N[P@](=O)(CO[C@H](C)Cn1cnc2c(N)ncnc21)Oc1ccccc1 [Tenofovir alafenamide]
Cholesterol-free [1]: 1.21 | Complete [1]: 0.7227 | Difference [1]: −0.49 | Cholesterol-free media + simvastatin (0.04 μM) [2]: 0.7269 | Complete Media [2]: 0.65 | Difference [2]: −0.08

COc1ccccc1OCC(O)CN1CCN(CC(=O)Nc2c(C)cccc2C)CC1 (stereo not drawn) [Ranolazine (dihydrochloride)]
Difference [1, 12]: −0.23 | Cholesterol-free [1, 13]: 1.148 | Complete ([1]; NCI-H292 cells, complete media): 0.9194 | Cholesterol-free media + simvastatin (0.04 μM) [2, 25]: 0.9671 | Complete Media [2, 26]: 0.9017 | Difference [2, 27]: −0.07
